Where two headings read alike, the source gives them in different places.
Settings: for Blood, % Dose in Whole Organ / Blood, % dose / 1 % body weight / Bone Ave, % Dose/1 % Body weight / Femur, % dose / 1 % body weight / Kidneys, % Dose in Whole Organ / Kidneys, % dose / 1 % body weight / Liver, % Dose in Whole Organ / Liver, % dose / 1 % body weight / Marrow, % Dose in Whole Organ / Marrow, % dose / 1 % body weight / Muscle, % Dose in Whole Organ / Muscle, % dose / 1 % body weight / Pelvis, % dose / 1 % body weight / Spine, % dose / 1 % body weight / Tibia, % dose / 1 % body weight / Urine, % Dose / W. Femur, % Dose in Whole Organ / W. Tibia, % Dose in Whole Organ: 2 Hrs; for Ratio 99mTc/85Sr, Ave Bone / Ratio 99mTc/85Sr, Blood / Ratio 99mTc/85Sr, Femur / Ratio 99mTc/85Sr, Kidneys / Ratio 99mTc/85Sr, Liver / Ratio 99mTc/85Sr, Marrow / Ratio 99mTc/85Sr, Muscle / Ratio 99mTc/85Sr, Pelvis / Ratio 99mTc/85Sr, Spine / Ratio 99mTc/85Sr, Tibia: 2 hours

Substance: 99m technetium-tin-1-amino-ethane-1,1-diphosphonate [99mTc-Sn-AEDP]
- Blood, % Dose in Whole Organ (AEDP 0.01 mg/kg): 1.18 % Dose
- Blood, % dose / 1 % body weight (AEDP 0.01 mg/kg): 0.168 % Dose/1 % Body weight
- Bone Ave, % Dose/1 % Body weight (AEDP 0.01 mg/kg): 7.60 % Dose/1 % Body weight
- Femur, % dose / 1 % body weight (AEDP 0.01 mg/kg): 7.54 % Dose/1 % Body weight
- Kidneys, % Dose in Whole Organ (AEDP 0.01 mg/kg): 1.59 % Dose
- Kidneys, % dose / 1 % body weight (AEDP 0.01 mg/kg): 2.72 % Dose/1 % Body weight
- Liver, % Dose in Whole Organ (AEDP 0.01 mg/kg): 1.69 % Dose
- Liver, % dose / 1 % body weight (AEDP 0.01 mg/kg): 0.617 % Dose/1 % Body weight
- Marrow, % Dose in Whole Organ (AEDP 0.01 mg/kg): 0.657 % Dose
- Marrow, % dose / 1 % body weight (AEDP 0.01 mg/kg): 0.300 % Dose/1 % Body weight
- Muscle, % Dose in Whole Organ (AEDP 0.01 mg/kg): 0.988 % Dose
- Muscle, % dose / 1 % body weight (AEDP 0.01 mg/kg): 0.037 % Dose/1 % Body weight
- Pelvis, % dose / 1 % body weight (AEDP 0.01 mg/kg): 8.53 % Dose/1 % Body weight
- Spine, % dose / 1 % body weight (AEDP 0.01 mg/kg): 6.20 % Dose/1 % Body weight
- Tibia, % dose / 1 % body weight (AEDP 0.01 mg/kg): 8.13 % Dose/1 % Body weight
- Urine, % Dose (AEDP 0.01 mg/kg): 48.39 % Dose
- W. Femur, % Dose in Whole Organ (AEDP 0.01 mg/kg): 2.34 % Dose
- W. Tibia, % Dose in Whole Organ (AEDP 0.01 mg/kg): 1.96 % Dose
- Blood, % Dose in Whole Organ (AEDP 0.05 mg/kg): 1.01 % Dose
- Blood, % dose / 1 % body weight (AEDP 0.05 mg/kg): 0.144 % Dose/1 % Body weight
- Bone Ave, % Dose/1 % Body weight (AEDP 0.05 mg/kg): 8.39 % Dose/1 % Body weight
- Femur, % dose / 1 % body weight (AEDP 0.05 mg/kg): 8.63 % Dose/1 % Body weight
- Kidneys, % Dose in Whole Organ (AEDP 0.05 mg/kg): 1.13 % Dose
- Kidneys, % dose / 1 % body weight (AEDP 0.05 mg/kg): 1.83 % Dose/1 % Body weight
- Liver, % Dose in Whole Organ (AEDP 0.05 mg/kg): 0.806 % Dose
- Liver, % dose / 1 % body weight (AEDP 0.05 mg/kg): 0.176 % Dose/1 % Body weight
- Marrow, % Dose in Whole Organ (AEDP 0.05 mg/kg): 0.549 % Dose
- Marrow, % dose / 1 % body weight (AEDP 0.05 mg/kg): 0.250 % Dose/1 % Body weight
- Muscle, % Dose in Whole Organ (AEDP 0.05 mg/kg): 1.20 % Dose
- Muscle, % dose / 1 % body weight (AEDP 0.05 mg/kg): 0.028 % Dose/1 % Body weight
- Pelvis, % dose / 1 % body weight (AEDP 0.05 mg/kg): 7.82 % Dose/1 % Body weight
- Spine, % dose / 1 % body weight (AEDP 0.05 mg/kg): 7.80 % Dose/1 % Body weight
- Tibia, % dose / 1 % body weight (AEDP 0.05 mg/kg): 9.30 % Dose/1 % Body weight
- Urine, % Dose (AEDP 0.05 mg/kg): 44.21 % Dose
- W. Femur, % Dose in Whole Organ (AEDP 0.05 mg/kg): 2.41 % Dose
- W. Tibia, % Dose in Whole Organ (AEDP 0.05 mg/kg): 2.14 % Dose
- Blood, % Dose in Whole Organ (AEDP 0.1 mg/kg): 0.96 % Dose
- Blood, % dose / 1 % body weight (AEDP 0.1 mg/kg): 0.137 % Dose/1 % Body weight
- Bone Ave, % Dose/1 % Body weight (AEDP 0.1 mg/kg): 7.51 % Dose/1 % Body weight
- Femur, % dose / 1 % body weight (AEDP 0.1 mg/kg): 7.93 % Dose/1 % Body weight
- Kidneys, % Dose in Whole Organ (AEDP 0.1 mg/kg): 0.913 % Dose
- Kidneys, % dose / 1 % body weight (AEDP 0.1 mg/kg): 1.28 % Dose/1 % Body weight
- Liver, % Dose in Whole Organ (AEDP 0.1 mg/kg): 0.309 % Dose
- Liver, % dose / 1 % body weight (AEDP 0.1 mg/kg): 0.083 % Dose/1 % Body weight
- Marrow, % Dose in Whole Organ (AEDP 0.1 mg/kg): 0.211 % Dose
- Marrow, % dose / 1 % body weight (AEDP 0.1 mg/kg): 0.096 % Dose/1 % Body weight
- Muscle, % Dose in Whole Organ (AEDP 0.1 mg/kg): 1.46 % Dose
- Muscle, % dose / 1 % body weight (AEDP 0.1 mg/kg): 0.034 % Dose/1 % Body weight
- Pelvis, % dose / 1 % body weight (AEDP 0.1 mg/kg): 6.24 % Dose/1 % Body weight
- Spine, % dose / 1 % body weight (AEDP 0.1 mg/kg): 7.36 % Dose/1 % Body weight
- Tibia, % dose / 1 % body weight (AEDP 0.1 mg/kg): 8.50 % Dose/1 % Body weight
- Urine, % Dose (AEDP 0.1 mg/kg): 38.8 % Dose
- W. Femur, % Dose in Whole Organ (AEDP 0.1 mg/kg): 2.38 % Dose
- W. Tibia, % Dose in Whole Organ (AEDP 0.1 mg/kg): 2.18 % Dose
- Blood, % Dose in Whole Organ (AEDP 0.5 mg/kg): 1.38 % Dose
- Blood, % dose / 1 % body weight (AEDP 0.5 mg/kg): 0.197 % Dose/1 % Body weight
- Bone Ave, % Dose/1 % Body weight (AEDP 0.5 mg/kg): 6.96 % Dose/1 % Body weight
- Femur, % dose / 1 % body weight (AEDP 0.5 mg/kg): 6.59 % Dose/1 % Body weight
- Kidneys, % Dose in Whole Organ (AEDP 0.5 mg/kg): 1.11 % Dose
- Kidneys, % dose / 1 % body weight (AEDP 0.5 mg/kg): 2.11 % Dose/1 % Body weight
- Liver, % Dose in Whole Organ (AEDP 0.5 mg/kg): 0.216 % Dose
- Liver, % dose / 1 % body weight (AEDP 0.5 mg/kg): 0.079 % Dose/1 % Body weight
- Marrow, % Dose in Whole Organ (AEDP 0.5 mg/kg): 0.23 % Dose
- Marrow, % dose / 1 % body weight (AEDP 0.5 mg/kg): 0.104 % Dose/1 % Body weight
- Muscle, % Dose in Whole Organ (AEDP 0.5 mg/kg): 0.883 % Dose
- Muscle, % dose / 1 % body weight (AEDP 0.5 mg/kg): 0.021 % Dose/1 % Body weight
- Pelvis, % dose / 1 % body weight (AEDP 0.5 mg/kg): 7.93 % Dose/1 % Body weight
- Spine, % dose / 1 % body weight (AEDP 0.5 mg/kg): 6.05 % Dose/1 % Body weight
- Tibia, % dose / 1 % body weight (AEDP 0.5 mg/kg): 7.27 % Dose/1 % Body weight
- Urine, % Dose (AEDP 0.5 mg/kg): 48.85 % Dose
- W. Femur, % Dose in Whole Organ (AEDP 0.5 mg/kg): 1.74 % Dose
- W. Tibia, % Dose in Whole Organ (AEDP 0.5 mg/kg): 1.55 % Dose
- Ratio 99mTc/85Sr, Ave Bone (0.01 mg/kg): 0.735
- Ratio 99mTc/85Sr, Blood (0.01 mg/kg): 0.406
- Ratio 99mTc/85Sr, Femur (0.01 mg/kg): 0.720
- Ratio 99mTc/85Sr, Kidneys (0.01 mg/kg): 4.99
- Ratio 99mTc/85Sr, Liver (0.01 mg/kg): 3.00
- Ratio 99mTc/85Sr, Marrow (0.01 mg/kg): 1.27
- Ratio 99mTc/85Sr, Muscle (0.01 mg/kg): 0.338
- Ratio 99mTc/85Sr, Pelvis (0.01 mg/kg): 0.794
- Ratio 99mTc/85Sr, Spine (0.01 mg/kg): 0.689
- Ratio 99mTc/85Sr, Tibia (0.01 mg/kg): 0.710
- Ratio 99mTc/85Sr, Ave Bone (0.05 mg/kg): 0.683
- Ratio 99mTc/85Sr, Blood (0.05 mg/kg): 0.409
- Ratio 99mTc/85Sr, Femur (0.05 mg/kg): 0.687
- Ratio 99mTc/85Sr, Kidneys (0.05 mg/kg): 3.30
- Ratio 99mTc/85Sr, Liver (0.05 mg/kg): 1.32
- Ratio 99mTc/85Sr, Marrow (0.05 mg/kg): 1.18
- Ratio 99mTc/85Sr, Muscle (0.05 mg/kg): 0.236
- Ratio 99mTc/85Sr, Pelvis (0.05 mg/kg): 0.684
- Ratio 99mTc/85Sr, Spine (0.05 mg/kg): 0.675
- Ratio 99mTc/85Sr, Tibia (0.05 mg/kg): 0.681
- Ratio 99mTc/85Sr, Ave Bone (0.1 mg/kg): 0.716
- Ratio 99mTc/85Sr, Blood (0.1 mg/kg): 0.409
- Ratio 99mTc/85Sr, Femur (0.1 mg/kg): 0.714
- Ratio 99mTc/85Sr, Kidneys (0.1 mg/kg): 2.94
- Ratio 99mTc/85Sr, Liver (0.1 mg/kg): 0.490
- Ratio 99mTc/85Sr, Marrow (0.1 mg/kg): 0.621
- Ratio 99mTc/85Sr, Muscle (0.1 mg/kg): 0.205
- Ratio 99mTc/85Sr, Pelvis (0.1 mg/kg): 0.725
- Ratio 99mTc/85Sr, Spine (0.1 mg/kg): 0.705
- Ratio 99mTc/85Sr, Tibia (0.1 mg/kg): 0.721
- Ratio 99mTc/85Sr, Ave Bone (0.5 mg/kg): 0.644
- Ratio 99mTc/85Sr, Blood (0.5 mg/kg): 0.280
- Ratio 99mTc/85Sr, Femur (0.5 mg/kg): 0.628
- Ratio 99mTc/85Sr, Kidneys (0.5 mg/kg): 2.47
- Ratio 99mTc/85Sr, Liver (0.5 mg/kg): 0.459
- Ratio 99mTc/85Sr, Marrow (0.5 mg/kg): 0.500
- Ratio 99mTc/85Sr, Muscle (0.5 mg/kg): 0.140
- Ratio 99mTc/85Sr, Pelvis (0.5 mg/kg): 0.692
- Ratio 99mTc/85Sr, Spine (0.5 mg/kg): 0.614
- Ratio 99mTc/85Sr, Tibia (0.5 mg/kg): 0.632
